Patent publication EP0107214A2, “Pharmaceutical compositions containing benzoyl-phenyl ureas with anti-tumour activity” (DUPHAR INTERNATIONAL RESEARCH B.V, priority 1982, dated 1984)
Read-outs that look alike come from different tables or passages of the source.

Columns and labels:
B-16 malignant melanoma = B-16 malignant melanoma in C57BL/6 mice, tumor growth after intraperitoneal injection; assay type: in vivo
Procedure: The compounds were tested by intraperitoneal injections of suspensions of the compounds in an aqueous solution of polyvinyl pyrrolidone.
Mice with malignant melanomas were injected with 20 mg or 40 mg diflubenzuron in suspension or with the suspension medium (blank).
Finally compound 2) was given in doses of 20 mg each on days 0, 1 and 2.
Animals with growing tumors were treated with 100 mg of diflubenzuron alone (suspended in an aqueous solution of polyvinylpyrrolidone) or in combination with a metabolic inhibitor or a metabolic inducer according to the schedule given in Table XI.

melanoma B-16 cells = assay: Malignant melanoma B-16 cells in vitro, cell count by Coulter Counter; assay type: cell-based; details: Mus musculus; for activity at 300 µg/mL / activity at 50 µg/mL / activity at 200 µg/mL: B16, 48 h; for activity at 300 µg/mL: 300 ug/ml; for activity at 500 µg/mL / activity at 5000 µg/mL: B16, 20 hours incubation, cells counted at 48 hours; for activity at 500 µg/mL: read-out: Percentage of controll cell growth when tested in an amount of 5 x 10^2 µg/ml; for activity at 5000 µg/mL: read-out: Percentage of controll cell growth when tested in an amount of 5 x 10^3 µg/ml; for activity at 50 µg/mL: 50 ug/ml; for activity at 200 µg/mL: 200 ug/ml
Procedure: Cells of malignant melanomas B-16 grow as a monolayer. The doubling time of this type of cells in a cell--culture is 12 to 16 hours. For this experiment 6 multi-well tissue culture plates having a flat bottom with a surface area of 6 cm^2 appeared to be suitable and have been used.
On day 0 a quantity of melanoma B-16 cells were brought on the cell-culture plates.
The test compounds were sonicated and then incubated without cells for 3 hours at 37°C.
Then the compound to be tested was administered to the plates with melanoma B-16 cells in the desired quantity (each test was done in triplicate). Thereafter the plates were incubated in a C02-incubator for 20 hours at 37°C. Then the incubation was stopped by removing the culture medium containing the test compound, the cells were washed twice, and fresh culture medium was added.
48 Hours after starting the incubation step the number of cells on each plate was measured by means of a microcell Coulter Counter. The results so obtained have been expressed as "percentage of controll cell growth".
In the above experiment the compounds to be tested have been used in the form of a suspension. Since it is not quite clear how much of the active compounds is dissolved, the above results cannot be compared very well.
Therefore a number of compounds has been dissolved in ethanol.

[1] = 10 mg each on days 0, 1, 2, 3 and 4
[2] = 20 mg each on days 0, 1, 2, 3 and 4
[3] = dissolved in ethanol, read-out: Percentage of controll cell growth (solution)
[4] = suspension, read-out: Percentage of controll cell growth (suspension)
[5] = 100 mg total, 20 mg each on day 0, 1, 2, 3 and 4

## O=C(NC(=O)c1c(Cl)cccc1Cl)Nc1ccc(C(F)(F)F)cc1 [Compound 18, 1-(2,6-dichlorobenzoyl)-3-(4-trifluoromethylphenyl)urea]
B-16 malignant melanoma; [1]
  Mean tumor Mass Day 1: 314

## O=C(NC(=O)c1c(F)cccc1F)Nc1ccc(Cl)c(Cl)c1 [Compound 15, 1-(2,6-difluorobenzoyl)-3-(3,4-dichlorophenyl)urea]
B-16 malignant melanoma; [2]
  Mean tumor Mass Day 1: 151

## O=C(NC(=O)c1ccccc1Cl)Nc1ccc(C(F)(F)F)cc1O [Compound 21, 1-(2-chlorobenzoyl)-3-(2-hydroxy-4-trifluoromethylphenyl)urea]
Melanoma B-16 cells; [3]
  activity at 300 µg/mL: 43%
Melanoma B-16 cells; [4]
  activity at 300 µg/mL: 50%
Melanoma B-16 cells; suspension
  activity at 500 µg/mL: 101%
  activity at 5000 µg/mL: 71%

## O=C(NC(=O)c1c(Cl)cccc1Cl)Nc1ccc(Cl)cc1 [Compound 17, 1-(2,6-dichlorobenzoyl)-3-(4-chlorophenyl)urea]
B-16 malignant melanoma; [1]
  Mean tumor Mass Day 1: 347

## O=C(NC(=O)c1c(F)cccc1F)Nc1ccc(OC(F)(F)C(F)C(F)(F)F)cc1 (stereo not shown) [Compound 11]
B-16 malignant melanoma; [2]
  Mean tumor Mass Day 1: 193

## O=C(NC(=O)c1c(F)cccc1F)Nc1ccc(O)cc1 [Compound 12, 1-(2,6-difluorobenzoyl)-3-(4 :aydroxyphenyl)urea]
B-16 malignant melanoma; [2]
  Mean tumor Mass Day 1: 148

## O=C(NC(=O)c1c(F)cccc1F)Nc1ccc(Oc2ccc(Cl)cc2)c(Cl)c1 [Compound 3, 1-(2,6-difluorobenzoyl)-3-[3-chloro-4-(4-chlorophenoxy)phenyl]urea]
B-16 malignant melanoma; [2]
  Mean tumor Mass Day 1: 127
Melanoma B-16 cells; suspension
  activity at 500 µg/mL: 33%
  activity at 5000 µg/mL: 8%

## N#Cc1ccc(NC(=O)NC(=O)c2c(F)cccc2F)cc1 [Compound 10, l-(2,6-difluorobenzoyl)-3-(4-cyanophenyl)urea]
B-16 malignant melanoma; [2]
  Mean tumor Mass Day 1: 183

## Cc1ccc2cc3c(ccc4ccccc43)c3c2c1CC3 [3-methylcholanthrene, 3-Methylcholanthrene, reference compound]
B-16 malignant melanoma; mouse, in vivo
  % change in tumor mass day 1: 122 (6) %
  % change in tumor mass day 2: 223 (6) %
  % change in tumor mass day 3: 364 (6) %
  % change in tumor mass day 4: 417 (6) %
  % change in tumor mass day 5: 363 (6) %

## O=C(NC(=O)c1c(F)cccc1F)Nc1ccc(Cl)c(O)c1 [Compound 8, 1-(2,6-difluorobenzoyl)-3-(4-chloro-3-hydroxyphenyl)urea]
B-16 malignant melanoma; [5]
  % change in tumor mass day 1: 39.5 (12) %
  % change in tumor mass day 2: 52.4 (12) %
  % change in tumor mass day 3: 91.2 (12) %
  % change in tumor mass day 4: 149 (12) %
  % change in tumor mass day 5: 223 (12) %
  % change in tumor mass on day 11: 930 (12) %
  antitumor effect compared with parent compound diflubenzuron (in words): not active at all
Melanoma B-16 cells; [3]
  activity at 300 µg/mL: 0%
Melanoma B-16 cells; [4]
  activity at 300 µg/mL: 63%
Melanoma B-16 cells; suspension
  activity at 500 µg/mL: 51%
  activity at 5000 µg/mL: 53%

## O=C(NC(=O)c1c(F)cccc1F)Nc1ccc(C2CCCCC2)cc1 [Compound 13, l-(2,6-difluorobenzoyl)-3-(4-cyclohexylphenyl)urea]
B-16 malignant melanoma; [1]
  Mean tumor Mass Day 1: 205

## O=C(NC(=O)c1ccccc1)Nc1ccc(Cl)cc1 [Compound 19, 1-benzoyl-3-(4-chlorophenyl)urea]
B-16 malignant melanoma; [2]
  Mean tumor Mass Day 1: 159

## O=C(NC(=O)c1c(F)cccc1F)Nc1ccc(Cl)cc1O [Compound 7]
B-16 malignant melanoma; [5]
  % change in tumor mass day 1: -23.4 (12) %
  % change in tumor mass day 2: -17.4 (12) %
  % change in tumor mass day 3: 25.1 (12) %
  % change in tumor mass day 4: 74.7 (10) %
  % change in tumor mass day 5: 127 (10) %
  % change in tumor mass on day 11: 699 (10) %
  antitumor effect compared with parent compound diflubenzuron (in words): more effective
Melanoma B-16 cells; [3]
  activity at 50 µg/mL: 39%
  activity at 300 µg/mL: 0%
Melanoma B-16 cells; [4]
  activity at 50 µg/mL: 103%
  activity at 300 µg/mL: 103%

## O=C(NC(=O)c1ccccc1Cl)Nc1ccc(OC(F)(F)F)cc1O [Compound 9, 1-(2-chlorobenzoyl)-3-(2-hydroxy-4-trifluoromethoxyphenyl)urea]
Melanoma B-16 cells; suspension
  activity at 500 µg/mL: 100%
  activity at 5000 µg/mL: 70%

## O=C(NC(=O)c1c(F)cccc1F)Nc1ccc(C(F)(F)F)cc1O [Compound 20, 1-(2,6-difluorobenzoyl)-3-(2-hydroxy-4-trifluoromethylphenyl)urea]
Melanoma B-16 cells; suspension
  activity at 500 µg/mL: 91%
  activity at 5000 µg/mL: 81%

## O=C(NC(=O)c1ccccc1Cl)Nc1ccc(OC(F)(F)F)cc1 [Compound 6, l-(2-chlorobenzoyl)-3-(4-trifluoromethoxyphenyl)urea]
B-16 malignant melanoma; [2]
  Mean tumor Mass Day 1: 229
Melanoma B-16 cells; [3]
  activity at 300 µg/mL: 95%
Melanoma B-16 cells; [4]
  activity at 300 µg/mL: 88%

## O=C(NC(=O)c1c(F)cccc1F)Nc1cc(Cl)c(Oc2ncc(C(F)(F)F)cc2Cl)c(Cl)c1 [Compound 2, 1-(2,6-difluorobenzoyl)-3-[3,5-dichloro-4-(3-chloro-5--trifluoromethyl-2-pyridyloxy)phenyl]urea]
B-16 malignant melanoma; 20 mg each on days 0, 1 and 2
  Mean tumor Mass Day 1: 191
Melanoma B-16 cells; [3]
  activity at 200 µg/mL: 72%
Melanoma B-16 cells; [4]
  activity at 200 µg/mL: 114%

## O=C(NC(=O)c1ccccc1Cl)Nc1ccc(Cl)cc1 [Compound 5, 1-(2-chlorobenzoyl)-3-(4-chlorophenyl)urea]
B-16 malignant melanoma; [2]
  Mean tumor Mass Day 1: 198
Melanoma B-16 cells; suspension
  activity at 500 µg/mL: 98%
  activity at 5000 µg/mL: 86%
